Entries after “also recorded” stand apart in the source; their conditions may differ. Bounds are passed on as bounds.

For series [1], the system named is APOE. Put plainly: qPCR of LXR-regulated mRNA expression in HepG2: APOE. Format: cell-based, human. Conditions: 1 μM, HepG2, 24 h. On the technique in general: Real-time PCR tracks product formation cycle by cycle.
Series [2] deals with ABCA1. Description: qPCR of LXR-regulated mRNA expression in HepG2: ABCA1. Format: cell-based, human. Conditions: 1 μM, HepG2, 24 h.
In series [3] the test system is SREBP1c. Put plainly: qPCR of LXR-regulated mRNA expression in HepG2: SREBP1c. It is filed as cell-based, human. Conditions: 1 μM, HepG2, 24 h.
Series [4] has as its system LXR/retinoid X receptor (RXR) heterodimer. Description: full-length LXR assay (LXR-responsive ABCA1 reporter, endogenous LXR) in HEK293T and HepG2 cells. It is filed as cell-based. Conditions: 3 μM, vs 0.1% DMSO. From the text:
Intrigued by the initial data on LXR modulation, we further investigated the mode-of-action of designs 1-3. As the Gal4 hybrid reporter gene assay is artificial and overexpresses LXR, we next examined LXR modulation by 1-3 in a full-length LXR assay (Figure a) based on the endogenous expression of the LXR/retinoid X receptor (RXR) heterodimer (Figure S2). Upon activation, LXR binds to response elements within the ATP-binding cassette transporter A1 (ABCA1, an LXR target gene) promoter of the reporter. […] The designs were next checked for antiproliferative effects that may compromise further in vitro characterization. […] Therefore, and due to the weak efficacy of 2, we focused further biological characterization on 1 and 3.
For the hybrid reporter gene assays, the previously reported Gal4-fusion receptor plasmids pFA-CMV-hRORα-LBD, pFA-CMV-hRORβ-LBD, pFA-CMV-hRORγ-LBD, pFA-CMV-hLXRα-LBD, pFA-CMV-hLXRβ-LBD, pFA-CMV-hFXR-LBD, pFA-CMV-hPXR-LBD, and pFA-CMV-hRXRα-LBD, coding for the hinge region, and LBD of the canonical isoform of the respective nuclear receptor were used. pFR-Luc (Stratagene) was used as the reporter plasmid, and pRL-SV40 (Promega) was used in all assays for the normalization of transfection efficiency and cell growth. pECE-SV40-Gal4-VP16 was a gift from Lea Sistonen (Addgene plasmid #71728). The LXR-responsive reporter ABCA1-pGL3 was used for the full-length reporter gene assay.
The day before transfection, HEK293T cells were seeded in 96-well plates (4 × 10^4 cells/well). Before transfection, the medium was changed to Opti-MEM without any supplements. […] Luminescence was measured with a Spark 10 M luminometer (Tecan Deutschland GmbH). […] EC50/IC50 values and the standard errors thereof were calculated with the mean fold activation values by OriginPro, Version 2025 (OriginLab Corporation, Northampton, MA, USA), fitting a dose–response curve with a variable Hill slope (Levenberg–Marquardt algorithm). […]

Series [5] concerns the target T1, LXRβ (Homo sapiens, UniProt P55055).
T1 construct: coding for the hinge region, and LBD of the canonical isoform of the respective nuclear receptor; expressed in transfected cells; host or cells: HEK293T
T1 sequence (P55055 222-460 limits assumed): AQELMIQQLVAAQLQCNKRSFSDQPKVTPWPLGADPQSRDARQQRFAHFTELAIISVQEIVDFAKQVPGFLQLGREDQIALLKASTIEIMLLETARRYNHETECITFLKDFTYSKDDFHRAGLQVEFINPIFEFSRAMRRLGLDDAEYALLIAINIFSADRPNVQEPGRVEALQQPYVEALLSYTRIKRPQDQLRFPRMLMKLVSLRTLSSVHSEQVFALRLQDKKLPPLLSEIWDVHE
Put plainly: Gal4-LXRβ hybrid reporter gene assay. It is filed as cell-based. Conditions: classification agonist; read-out: LXRb pEC50/pIC50 (converted). On the procedure:
(§1) The LXR-responsive reporter ABCA1-pGL3 was used for the full-length reporter gene assay.
(§2) The day before transfection, HEK293T cells were seeded in 96-well plates (4 × 10^4 cells/well). Before transfection, the medium was changed to Opti-MEM without any supplements. Transient transfection was carried out using Lipofectamine LTX reagent (Invitrogen) according to the manufacturer’s protocol with (a) pFR-Luc (Stratagene), pRL-SV40 (Promega), and the corresponding Gal4-fusion nuclear receptor plasmid or (b) the LXR-responsive reporter ABCA1-pGL3 and pRL-SV40 (Promega). […] Each concentration was tested in duplicate, and each experiment was repeated in at least three biologically independent repeats. […] Luminescence was measured with a Spark 10 M luminometer (Tecan Deutschland GmbH). Normalization of transfection efficiency and cell growth was done by division of firefly luciferase data by renilla luciferase data multiplied by 1000, resulting in relative light units (RLU). Fold activation was obtained by dividing the mean RLU of the tested compound at a respective concentration by the mean RLU of the untreated 0.1% DMSO control. […] Separate control experiments to exclude nonspecific reporter gene activation or VP16-mediated effects were performed following the same procedure in the absence of a nuclear receptor expression plasmid (pFR-Luc, pRL-SV40, and pECE-SV40-Gal4-VP16 only).

For series [6], the target named is T2, LXRα (Homo sapiens, UniProt Q13133).
T2 construct: coding for the hinge region, and LBD of the canonical isoform of the respective nuclear receptor; expressed in transfected cells; host or cells: HEK293T
T2 sequence (Q13133 209-447 limits assumed): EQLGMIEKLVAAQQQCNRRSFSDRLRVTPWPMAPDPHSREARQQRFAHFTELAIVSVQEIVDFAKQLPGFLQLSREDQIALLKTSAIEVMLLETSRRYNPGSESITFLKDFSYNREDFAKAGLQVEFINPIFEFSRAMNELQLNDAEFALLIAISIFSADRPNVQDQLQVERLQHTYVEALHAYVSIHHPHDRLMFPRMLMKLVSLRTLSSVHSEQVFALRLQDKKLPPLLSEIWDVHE
Put plainly: Gal4-LXRα hybrid reporter gene assay. It is filed as cell-based. On the procedure: as §1, §2
For orientation: In a reporter assay the amount or activity of a reporter protein is the signal.

Series [7] concerns HepG2 cells. Description: resazurin-based proliferation assay, HepG2. Format: cell-based. Conditions: 10 μM. Here is the method: (§3) HepG2 or HEK293T cells were seeded in 96-well plates (4 × 10^4 cells per well). […] After 4, 14, and 24 h, the medium was aspirated, and the cells were incubated with 100 μM resazurin solution in Opti-MEM (prepared from a 0.15 mg/mL resazurin stock in DPBS) for 60 min. The metabolic activity was assessed by conversion of resazurin to resorufin, which was quantified by measuring absorbance at 570 nm and a reference wavelength of 600 nm. The cell count was calculated from a calibration curve with 0–10^5 cells per well in steps of 2 × 10^4.

Series [8] deals with HEK293T cells. Put plainly: resazurin-based proliferation assay, HEK293T. Conditions: 10 μM. It is filed as cell-based. On the procedure: as §3
A general note: Resazurin is reduced to fluorescent resorufin, in cell work by metabolically active cells.

Take `O=S(=O)(c1ccccc1)N(CC(F)(F)F)c1ccc(C(O)(C(F)(F)F)C(F)(F)F)cc1` [Compound T0901317, reference compound]: the “APOE mRNA expression” value in series [1] is recorded as “induced mRNA expression”; in series [1] (listed as T090) it was “induced”. The “ABCA1 mRNA expression” value is reported as “induced mRNA expression” in series [2] and “induced” in series [2] (listed as T090). Moreover, the entries for the “SREBP1c mRNA expression” value in series [3] and in series [3] (listed as T090) were “induced mRNA expression” and “induced”, respectively.

Regarding `CS(=O)(=O)c1cccc(N2CCN(c3ccc(Cl)c(C(F)(F)F)c3)CC2)c1` [Compound 2, 1-(4-Chloro-3-[trifluoromethyl]phenyl)-4-(3-[methylsulfonyl]phenyl)piperazine], the “LXR modulation in LXR-responsive ABCA1 reporter gene assay” value in series [4] is reported as “partial LXR agonists; also recorded: partial LXR agonism”. For the same compound, the EC50 was greater than 3.16 µM in series [5] and greater than 3.16 µM in series [6] (classification agonist, read-out: LXRa pEC50/pIC50 (converted)). In addition, the classification entry in series [6] (applies to LXRa and LXRb) is listed as “agonist”. Also, the “LXR modulation in Gal4 hybrid reporter gene assays (mode of action)” value in series [6] (both LXR subtypes (LXRα and LXRβ)) is reported as “partial agonists”. In addition, the antiproliferative effect result in series [7] is given as “did not inhibit the proliferation”; in series [8], “did not inhibit the proliferation; also recorded: slightly reduced growth rate”.

The values are drawn from paper PMC12621175, “Scaffold Fusion and SAR Transfer with a Chemical Language Model Generates Novel Liver X Receptor Modulators” (Journal of Medicinal Chemistry, 2025).
